Laboratory results published in PMC3358308 (2012).

Key:
[1] = tested on: LD (DNA, duplex) GCGCAATTGCGC; experiment: UV-Vis absorption, fluorescence; details: K+ 50 mM (KCl); 10 mM Tris-HCl pH 7.0, 1 mM EDTA; 5 µM compound, 10 µM strand; weak new band at 682 nm
[2] = tested on: Hum24 (DNA, G4) TTAGGGTTAGGGTTAGGGTTAGGG; experiment: UV-Vis absorption titration, Job plot, fluorescence; details: K+ 50 mM (KCl); 10 mM Tris-HCl pH 7.0, 1 mM EDTA, 25 °C; 5 µM compound; Scatchard two-site, constants not given
[3] = tested on: M3Q (DNA, G4) GAGGGAGGGAGGGAGAGGGA; experiment: as above; details: K+ 50 mM (KCl); 10 mM Tris-HCl pH 7.0, 1 mM EDTA, 25 °C; 5 µM compound; Scatchard two-site, constants not given
[4] = tested on: KRAS (DNA, G4) AGGGCGGTGTGGGAAGAGGGAAGAGGGGGAGG; experiment: as above; details: K+ 50 mM (KCl); 10 mM Tris-HCl pH 7.0, 1 mM EDTA, 25 °C; 5 µM compound; Scatchard two-site, constants not given
[5] = tested on: Oxy28 (DNA, G4) GGGGTTTTGGGGTTTTGGGGTTTTGGGG; experiment: as above; details: K+ 50 mM (KCl); 10 mM Tris-HCl pH 7.0, 1 mM EDTA, 25 °C; 5 µM compound; Scatchard two-site, constants not given

## C[N+]1(CCOc2ccc(-c3c4nc(c(-c5ccc(OCC[N+]6(C)CCCCC6)cc5)c5ccc([nH]5)c(-c5ccc(OCC[N+]6(C)CCCCC6)cc5)c5nc(c(-c6ccc(OCC[N+]7(C)CCCCC7)cc6)c6ccc3[nH]6)C=C5)C=C4)cc2)CCCCC1
[1]
  binding: weak
[2]
  binding: yes
[3]
  binding: yes
[4]
  binding: yes
[5]
  binding: yes
